Results taken from ChEMBL document CHEMBL1201862, “PubChem BioAssay data set” (2004).
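Each compound was tested at five concentrations against cells in 96-well plates for 48 hours. GI50 = concentration required for 50% inhibition of growth.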 Active and inactive are the calls of the source. Cut-off read from the data, not from the text of the source: active = GI50 up to about 1.1 µM and inactive = higher.

Experiments:
Assay in all cases: NCI-60 cell line screen, 48 h
786-0 = system: 786-0
A549 = system: A549
CAKI-1 = system: CAKI-1
IGROV-1 = system: IGROV-1
KM-20L2 = system: KM-20L2
M14 = system: M14
MDA-MB-435 = system: MDA-MB-435
NCI-H226 = system: NCI-H226
NCI-H23 = system: NCI-H23
RPMI-8226 = system: RPMI-8226
SK-MEL-2 = system: SK-MEL-2
SK-MEL-5 = system: SK-MEL-5
SNB-19 = system: SNB-19
SNB-78 = system: SNB-78
TK-10 = system: TK-10
UO-31 = system: UO-31
A498 = system: A498
ACHN = system: ACHN
SNB-75 = system: SNB-75
T47D = system: T47D

SMILES | GI50 (786-0) | GI50 (A549) | GI50 (CAKI-1) | GI50 (IGROV-1) | GI50 (KM-20L2) | GI50 (M14) | GI50 (MDA-MB-435) | GI50 (NCI-H226) | GI50 (NCI-H23) | GI50 (RPMI-8226) | GI50 (SK-MEL-2) | GI50 (SK-MEL-5) | GI50 (SNB-19) | GI50 (SNB-78) | GI50 (TK-10) | GI50 (UO-31) | GI50 (A498) | GI50 (ACHN) | GI50 (SNB-75) | GI50 (T47D)
COC1=C2C[C@@H](C)C[C@@H](OC)[C@@H](O)[C@H](C)/C=C(\C)[C@@H](OC(N)=O)[C@H](OC)/C=C\C=C(/C)C(=O)NC(=CC1=O)C2=O | 0.0762 µM (active) | 5.78 µM (inactive) | 1.77 µM (inactive) | 0.29 µM (active) | 0.0266 µM (active) | 0.106 µM (active) | 0.0309 µM (active) | 3.56 µM (inactive) | 0.0309 µM (active) | 0.138 µM (active) | 0.396 µM (active) | 0.678 µM (active) | 10.2 µM (inactive) | 1.04 µM (active) | 0.118 µM (active) | 0.189 µM (active) | – | – | – | –
Cc1nc(C(N)=S)sc1C(=O)CC(=O)C(=O)Nc1c(C(C)C)cccc1C(C)C | 50.4 µM (inactive) | 35.8 µM (inactive) | 42.1 µM (inactive) | 61.4 µM (inactive) | 41.3 µM (inactive) | 35.2 µM (inactive) | – | 41.4 µM (inactive) | 30.1 µM (inactive) | 55.8 µM (inactive) | 65.5 µM (inactive) | 54.6 µM (inactive) | 45.8 µM (inactive) | 66.2 µM (inactive) | > 100 µM (inactive) | 39.3 µM (inactive) | 71 µM (inactive) | 81.5 µM (inactive) | 25.2 µM (inactive) | –
O=Cc1ccccc1OCCOc1cc(OCCOc2ccccc2C=O)c(OCCOc2ccccc2C=O)cc1OCCOc1ccccc1C=O | 24.2 µM (inactive) | > 100 µM (inactive) | > 70.6 µM (inactive) | > 62.8 µM (inactive) | > 100 µM (inactive) | > 83.9 µM (inactive) | – | > 54.8 µM (inactive) | 56.5 µM (inactive) | 90.6 µM (inactive) | 44.9 µM (inactive) | > 100 µM (inactive) | > 31.6 µM (inactive) | 45.1 µM (inactive) | 42.6 µM (inactive) | > 52.8 µM (inactive) | > 100 µM (inactive) | 47.3 µM (inactive) | 8.07 µM (inactive) | –
O=C(CC1(O)C(=O)Nc2ccccc21)c1ccc(O)cc1O (stereo unspecified) | > 100 µM (inactive) | > 100 µM (inactive) | > 100 µM (inactive) | > 100 µM (inactive) | > 100 µM (inactive) | > 100 µM (inactive) | – | > 100 µM (inactive) | > 100 µM (inactive) | > 100 µM (inactive) | > 100 µM (inactive) | > 100 µM (inactive) | > 100 µM (inactive) | > 100 µM (inactive) | > 100 µM (inactive) | > 100 µM (inactive) | > 100 µM (inactive) | > 100 µM (inactive) | > 100 µM (inactive) | –
COc1cccc2c1C(=O)c1c(O)c3c(c(O)c1C2=O)C[C@@](O)(C(=O)CO)CC3OC1CC(N)C(OC2CCCCO2)C(C)O1 (stereo partly specified) | 0.272 µM (active) | 0.256 µM (active) | 0.916 µM (active) | 0.929 µM (active) | 0.561 µM (active) | 1.2 µM (inactive) | 0.0807 µM (active) | 0.419 µM (active) | 0.478 µM (active) | 0.33 µM (active) | 1.85 µM (inactive) | 0.299 µM (active) | 0.437 µM (active) | 1.5 µM (inactive) | 1.37 µM (inactive) | 0.762 µM (active) | 0.309 µM (active) | 0.24 µM (active) | 0.417 µM (active) | 0.00871 µM (active)
CN(C)CCNC(=O)c1cccc2nc3c4ccccc4c4ccccc4c3nc12 | 2.28 µM (inactive) | 2.74 µM (inactive) | 17.6 µM (inactive) | 3.38 µM (inactive) | 3.8 µM (inactive) | 2.29 µM (inactive) | 1.81 µM (inactive) | 9.86 µM (inactive) | 1.87 µM (inactive) | 1.56 µM (inactive) | 3.22 µM (inactive) | 3.37 µM (inactive) | 3.48 µM (inactive) | 14.8 µM (inactive) | 5.38 µM (inactive) | 9.44 µM (inactive) | 7 µM (inactive) | 5.01 µM (inactive) | 2.52 µM (inactive) | 8.13 µM (inactive)
O=C(Nc1cccc(Cl)c1)C(=O)C(C(=O)c1ccc2ccccc2c1)C1OC(=O)c2ccccc21 (stereo unspecified) | 10.6 µM (inactive) | 30 µM (inactive) | 18.5 µM (inactive) | 22.4 µM (inactive) | 33.7 µM (inactive) | 16 µM (inactive) | – | 2.86 µM (inactive) | 7.94 µM (inactive) | 7.67 µM (inactive) | 14.6 µM (inactive) | 14.7 µM (inactive) | 5.3 µM (inactive) | 5.9 µM (inactive) | 29 µM (inactive) | 14.1 µM (inactive) | 6.01 µM (inactive) | 25.4 µM (inactive) | 5.31 µM (inactive) | –
N#CC(C(=O)CCC(=O)Nc1cccc(C(F)(F)F)c1)c1ccccc1 (stereo unspecified) | > 100 µM (inactive) | > 100 µM (inactive) | > 100 µM (inactive) | > 100 µM (inactive) | > 100 µM (inactive) | > 100 µM (inactive) | – | > 100 µM (inactive) | > 100 µM (inactive) | > 100 µM (inactive) | > 100 µM (inactive) | > 100 µM (inactive) | > 100 µM (inactive) | > 100 µM (inactive) | > 100 µM (inactive) | > 100 µM (inactive) | > 100 µM (inactive) | > 100 µM (inactive) | > 100 µM (inactive) | –
